Laboratory results reported in patent publication US9193715B2, “Regulation of cholesterol homeostasis” (University of Notre Dam du Lac, priority 2012, dated 2015).

How the values were obtained:
[1] = test system: NPC1-mutant human fibroblasts (GM03123); assay: Filipin fluorescent imaging of intracellular cholesterol in NPC1-mutant human fibroblasts; assay type: cell-based
Protocol: GEX1A was evaluated for its ability to lower intracellular cholesterol levels in NPC1-mutant human fibroblasts (GM03123) through a previously described fluorescent imaging method (Pipalia et al., Automated microscopy screening for compounds that partially revert cholesterol accumulation in Niemann-Pick C cells. J. Lipid Res. (2006) 47: 284-301.).
Compounds described herein were evaluated for their ability to lower intracellular cholesterol levels in NPC1-mutant human fibroblasts (GM03123) by the fluorescent imaging methods of Pipalia and coworkers.

[2] = test system: human endothelial cells; assay: Filipin staining of cholesterol in itraconazole-induced NPC-like phenotype; assay type: cell-based
Protocol: Itraconazole, an anti-fungal agent, interferes with cholesterol trafficking and induces an NPC-like phenotype in human endothelial cells. Itraconazole (200 nM) was administered in two experiments with 100 nM GEX1A and 10 nM GEX1A, respectively. Filipin is used as a histochemical stain to visualize cholesterol in the cell line.

SMILES | correction of the NPC1 phenotype (filipin staining in the cell) ([1]; GM03123 cells, fluorescent imaging, FIG. 2) | potency in the classic filipin assay relative to HDAC inhibitors ([1]; NPC cells, preliminary studies) | amount of cholesterol in cell line (filipin stain) ([2]; 10 nM GEX1A with itraconazole 200 nM) | amount of cholesterol in cell line (filipin stain) ([2]; 100 nM GEX1A with itraconazole 200 nM) | IC50 ([2]; Homo sapiens, Endothelial cell, filipin cholesterol staining, itraconazole 200 nM) [nM] | correction of the NPC1 phenotype ([1]; 10 nM to 100 nM, time points of 24-72 hours, postulated)
CO[C@H]([C@@H](C)[C@H]1OC1(C)C[C@H](C)/C=C/C=C(\C)[C@H]1O[C@@H](CC(=O)O)CC[C@@H]1C)[C@@H](C)O (stereo partly drawn) [GEX1A] | correction of the NPC1 phenotype | equipotent to HDAC inhibitors | significant decrease | significant decrease | 6 | –
CC[C@H](O)[C@@H](C)[C@H]1O[C@@H]1C[C@H](C)/C=C/C=C(\C)[C@H]1OC(=O)C[C@H](O)CC[C@@](C)(O)[C@@H](OC(C)=O)/C=C/[C@@H]1C [Pladienolide, pladienolide B] | – | – | – | – | – | significant correction of the NPC1 phenotype
